From article PMC9481570, “A small molecule antagonist of SMN disrupts the interaction between SMN and RNAP II” (Nature Communications, 2022)
“And” between values parts separate entries of the source, which are not always exact repeats. Equal entries are not always repeated.

Tests used:
Test in all cases: Affinity-purification and mass spectrometry (AP-MS) chemical proteomics, all proteins;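 as to Difference: 200 µM free competitor with 20 µM biotin probe overnight in lysate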
Type in all cases: binding
[1] = target: T1, proteins displaced from immobilized biotin-Cmpd 1 pulldowns (U2OS cell lysate) (Homo sapiens, UniProt P04083); conditions: GN=ANXA1 (P04083)
T1 construct: endogenous in cells; host or cells: U2OS
T1 sequence (P04083 whole entry): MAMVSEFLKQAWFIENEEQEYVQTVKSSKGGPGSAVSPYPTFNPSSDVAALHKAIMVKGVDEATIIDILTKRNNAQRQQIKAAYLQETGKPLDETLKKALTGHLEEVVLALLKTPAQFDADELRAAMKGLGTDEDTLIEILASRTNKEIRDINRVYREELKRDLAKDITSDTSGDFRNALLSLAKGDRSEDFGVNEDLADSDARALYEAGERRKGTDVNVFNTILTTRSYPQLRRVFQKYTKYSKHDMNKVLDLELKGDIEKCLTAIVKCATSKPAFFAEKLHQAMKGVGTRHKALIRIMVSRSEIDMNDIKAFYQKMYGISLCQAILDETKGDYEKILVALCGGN

[2] = target: T2, proteins displaced from immobilized biotin-Cmpd 1 pulldowns (U2OS cell lysate) (Homo sapiens, UniProt Q9Y6M1); conditions: GN=IGF2BP2 (Q9Y6M1)
T2 construct: endogenous in cells; host or cells: U2OS
T2 sequence (Q9Y6M1 whole entry): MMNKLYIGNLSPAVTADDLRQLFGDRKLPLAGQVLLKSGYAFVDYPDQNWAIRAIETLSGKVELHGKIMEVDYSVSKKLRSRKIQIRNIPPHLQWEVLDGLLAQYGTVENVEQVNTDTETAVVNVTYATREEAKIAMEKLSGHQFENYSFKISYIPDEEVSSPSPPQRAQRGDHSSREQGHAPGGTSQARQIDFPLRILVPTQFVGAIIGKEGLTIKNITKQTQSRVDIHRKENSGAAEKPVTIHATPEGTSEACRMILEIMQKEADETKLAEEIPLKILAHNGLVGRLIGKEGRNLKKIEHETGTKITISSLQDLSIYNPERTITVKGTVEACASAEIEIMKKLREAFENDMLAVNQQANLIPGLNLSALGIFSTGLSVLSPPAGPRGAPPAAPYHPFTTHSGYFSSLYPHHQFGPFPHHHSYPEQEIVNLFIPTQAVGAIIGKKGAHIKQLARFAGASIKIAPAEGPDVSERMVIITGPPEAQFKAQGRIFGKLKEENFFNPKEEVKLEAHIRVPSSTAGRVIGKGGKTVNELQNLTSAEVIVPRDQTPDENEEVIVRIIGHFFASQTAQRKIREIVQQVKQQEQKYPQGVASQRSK

[3] = target: T3, proteins displaced from immobilized biotin-Cmpd 1 pulldowns (U2OS cell lysate) (Homo sapiens, UniProt P56537); conditions: GN=EIF6 (P56537)
T3 construct: endogenous in cells; host or cells: U2OS

[4] = target: T4, proteins displaced from immobilized biotin-Cmpd 1 pulldowns (U2OS cell lysate) (Homo sapiens, UniProt P05089); conditions: GN=ARG1 (P05089)
T4 construct: endogenous in cells; host or cells: U2OS
T4 sequence (P05089 whole entry): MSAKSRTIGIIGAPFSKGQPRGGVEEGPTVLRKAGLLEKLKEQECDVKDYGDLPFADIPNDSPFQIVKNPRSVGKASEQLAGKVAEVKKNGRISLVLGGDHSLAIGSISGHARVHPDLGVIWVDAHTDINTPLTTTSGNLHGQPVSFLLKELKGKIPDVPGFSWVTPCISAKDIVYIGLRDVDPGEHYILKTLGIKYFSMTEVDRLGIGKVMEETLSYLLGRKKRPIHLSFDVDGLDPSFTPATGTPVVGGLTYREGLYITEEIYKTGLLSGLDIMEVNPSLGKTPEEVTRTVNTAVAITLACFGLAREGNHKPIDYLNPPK

[5] = target: T5, proteins displaced from immobilized biotin-Cmpd 1 pulldowns (U2OS cell lysate) (Homo sapiens, UniProt Q9H8H0); conditions: GN=NOL11 (Q9H8H0)
T5 construct: endogenous in cells; host or cells: U2OS

[6] = target: T6, proteins displaced from immobilized biotin-Cmpd 1 pulldowns (U2OS cell lysate) (Homo sapiens, UniProt Q13867); conditions: GN=BLMH (Q13867)
T6 construct: endogenous in cells; host or cells: U2OS
T6 sequence (Q13867 whole entry): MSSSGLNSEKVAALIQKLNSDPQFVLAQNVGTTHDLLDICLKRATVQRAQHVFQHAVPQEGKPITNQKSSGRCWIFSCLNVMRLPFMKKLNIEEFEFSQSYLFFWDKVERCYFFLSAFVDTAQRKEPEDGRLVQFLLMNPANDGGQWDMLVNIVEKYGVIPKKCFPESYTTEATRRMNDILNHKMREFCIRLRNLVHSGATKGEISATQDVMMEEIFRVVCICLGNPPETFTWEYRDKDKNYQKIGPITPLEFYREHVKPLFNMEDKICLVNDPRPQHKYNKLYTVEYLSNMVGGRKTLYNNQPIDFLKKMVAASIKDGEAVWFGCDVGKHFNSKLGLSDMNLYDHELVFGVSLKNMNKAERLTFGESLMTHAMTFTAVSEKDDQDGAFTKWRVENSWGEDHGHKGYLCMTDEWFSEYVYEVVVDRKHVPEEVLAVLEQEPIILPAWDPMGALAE

[7] = target: T7, proteins displaced from immobilized biotin-Cmpd 1 pulldowns (U2OS cell lysate) (Homo sapiens, UniProt O60832); conditions: GN=DKC1 (O60832)
T7 construct: endogenous in cells; host or cells: U2OS
T7 sequence (O60832 whole entry): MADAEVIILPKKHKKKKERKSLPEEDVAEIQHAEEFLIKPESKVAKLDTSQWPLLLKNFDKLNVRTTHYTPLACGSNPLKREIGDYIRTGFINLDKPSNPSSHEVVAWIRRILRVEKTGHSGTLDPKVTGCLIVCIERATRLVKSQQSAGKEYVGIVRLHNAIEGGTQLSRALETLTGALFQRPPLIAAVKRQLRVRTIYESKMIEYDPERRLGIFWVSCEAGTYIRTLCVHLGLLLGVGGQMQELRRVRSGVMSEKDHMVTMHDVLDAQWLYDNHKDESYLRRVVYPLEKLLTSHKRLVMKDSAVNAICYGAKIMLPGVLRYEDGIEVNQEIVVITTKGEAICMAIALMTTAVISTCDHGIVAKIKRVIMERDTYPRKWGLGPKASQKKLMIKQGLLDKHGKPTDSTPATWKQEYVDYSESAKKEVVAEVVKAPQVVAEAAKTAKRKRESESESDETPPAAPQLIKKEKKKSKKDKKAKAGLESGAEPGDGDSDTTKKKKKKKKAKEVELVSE

[8] = target: T8, proteins displaced from immobilized biotin-Cmpd 1 pulldowns (U2OS cell lysate) (Homo sapiens, UniProt Q96AE4); conditions: GN=FUBP1 (Q96AE4)
T8 construct: endogenous in cells; host or cells: U2OS
T8 sequence (Q96AE4 whole entry): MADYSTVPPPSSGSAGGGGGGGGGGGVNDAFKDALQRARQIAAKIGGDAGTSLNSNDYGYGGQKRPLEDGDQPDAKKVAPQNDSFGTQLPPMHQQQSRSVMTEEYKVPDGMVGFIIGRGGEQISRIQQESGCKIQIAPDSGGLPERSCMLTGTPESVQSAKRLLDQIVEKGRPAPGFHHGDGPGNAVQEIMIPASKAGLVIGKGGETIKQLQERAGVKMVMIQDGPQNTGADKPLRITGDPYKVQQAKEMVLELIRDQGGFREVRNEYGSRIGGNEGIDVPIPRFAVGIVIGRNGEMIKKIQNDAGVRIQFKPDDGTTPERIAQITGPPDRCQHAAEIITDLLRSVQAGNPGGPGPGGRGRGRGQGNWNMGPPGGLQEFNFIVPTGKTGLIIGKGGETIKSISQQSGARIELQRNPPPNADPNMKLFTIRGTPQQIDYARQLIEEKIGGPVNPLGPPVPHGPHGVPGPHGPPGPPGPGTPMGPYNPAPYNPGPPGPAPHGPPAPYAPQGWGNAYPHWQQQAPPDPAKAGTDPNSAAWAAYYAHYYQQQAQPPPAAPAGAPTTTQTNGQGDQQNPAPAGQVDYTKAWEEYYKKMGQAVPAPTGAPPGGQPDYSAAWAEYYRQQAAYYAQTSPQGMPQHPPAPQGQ

[9] = target: T9, proteins displaced from immobilized biotin-Cmpd 1 pulldowns (U2OS cell lysate) (Homo sapiens, UniProt Q12873); conditions: GN=CHD3 (Q12873)
T9 construct: endogenous in cells; host or cells: U2OS
T9 sequence (Q12873 whole entry): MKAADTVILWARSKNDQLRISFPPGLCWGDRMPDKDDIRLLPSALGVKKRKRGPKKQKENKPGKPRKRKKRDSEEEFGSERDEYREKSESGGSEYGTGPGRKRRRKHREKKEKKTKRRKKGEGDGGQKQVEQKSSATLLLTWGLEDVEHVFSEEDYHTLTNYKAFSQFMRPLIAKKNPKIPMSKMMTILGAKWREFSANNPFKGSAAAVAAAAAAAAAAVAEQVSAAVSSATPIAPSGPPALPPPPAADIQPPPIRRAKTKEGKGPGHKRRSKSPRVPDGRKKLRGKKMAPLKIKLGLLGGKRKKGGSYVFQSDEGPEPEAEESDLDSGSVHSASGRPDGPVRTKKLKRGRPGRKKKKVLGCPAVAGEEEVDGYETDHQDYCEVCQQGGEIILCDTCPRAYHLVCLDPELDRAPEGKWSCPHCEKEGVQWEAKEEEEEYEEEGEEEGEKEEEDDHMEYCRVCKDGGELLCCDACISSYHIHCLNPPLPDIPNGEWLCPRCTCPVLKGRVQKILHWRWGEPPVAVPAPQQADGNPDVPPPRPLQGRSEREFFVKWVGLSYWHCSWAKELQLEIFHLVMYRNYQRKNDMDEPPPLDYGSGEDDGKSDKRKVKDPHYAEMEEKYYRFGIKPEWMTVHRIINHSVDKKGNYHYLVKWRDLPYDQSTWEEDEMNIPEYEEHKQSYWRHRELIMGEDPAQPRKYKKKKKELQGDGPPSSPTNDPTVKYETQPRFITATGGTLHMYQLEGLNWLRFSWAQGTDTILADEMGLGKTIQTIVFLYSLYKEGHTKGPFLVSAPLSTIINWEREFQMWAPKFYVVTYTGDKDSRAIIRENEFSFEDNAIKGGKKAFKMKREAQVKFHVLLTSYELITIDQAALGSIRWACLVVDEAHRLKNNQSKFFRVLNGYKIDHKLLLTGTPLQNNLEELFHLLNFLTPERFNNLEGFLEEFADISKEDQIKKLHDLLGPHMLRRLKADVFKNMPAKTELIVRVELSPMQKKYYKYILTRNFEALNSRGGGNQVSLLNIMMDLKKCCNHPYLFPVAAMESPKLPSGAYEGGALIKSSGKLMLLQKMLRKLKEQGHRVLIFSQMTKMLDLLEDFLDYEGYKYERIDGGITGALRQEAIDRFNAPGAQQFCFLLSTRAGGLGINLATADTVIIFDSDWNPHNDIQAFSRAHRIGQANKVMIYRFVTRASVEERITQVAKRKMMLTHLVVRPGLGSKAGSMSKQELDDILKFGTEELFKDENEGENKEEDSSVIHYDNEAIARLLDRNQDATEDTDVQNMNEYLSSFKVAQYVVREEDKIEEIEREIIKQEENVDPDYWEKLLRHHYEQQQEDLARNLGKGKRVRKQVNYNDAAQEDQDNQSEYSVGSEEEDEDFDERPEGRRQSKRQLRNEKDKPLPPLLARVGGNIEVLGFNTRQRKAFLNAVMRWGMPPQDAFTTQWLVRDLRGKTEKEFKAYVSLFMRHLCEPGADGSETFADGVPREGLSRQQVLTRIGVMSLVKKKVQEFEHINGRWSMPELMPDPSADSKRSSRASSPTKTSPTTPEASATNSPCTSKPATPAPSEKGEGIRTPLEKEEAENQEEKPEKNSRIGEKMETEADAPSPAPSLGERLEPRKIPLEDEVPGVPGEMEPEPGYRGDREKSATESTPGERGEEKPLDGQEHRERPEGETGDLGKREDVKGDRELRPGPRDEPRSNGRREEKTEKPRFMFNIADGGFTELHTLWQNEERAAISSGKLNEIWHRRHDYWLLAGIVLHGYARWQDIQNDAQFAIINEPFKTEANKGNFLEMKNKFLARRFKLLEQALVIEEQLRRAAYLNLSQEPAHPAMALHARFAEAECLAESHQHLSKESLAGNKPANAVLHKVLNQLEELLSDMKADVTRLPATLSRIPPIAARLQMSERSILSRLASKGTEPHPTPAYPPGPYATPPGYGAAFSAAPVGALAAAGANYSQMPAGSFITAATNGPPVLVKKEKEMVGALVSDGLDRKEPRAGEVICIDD

[10] = target: T10, proteins displaced from immobilized biotin-Cmpd 1 pulldowns (U2OS cell lysate) (Homo sapiens, UniProt Q7Z2W9); conditions: GN=MRPL21 (Q7Z2W9)
T10 construct: endogenous in cells; host or cells: U2OS

Cn1c2c(c(=N)c3c1CCC3)CCC2 [Compound 1, 4-methyl-2,3,4,5,6,7-hexahydrodicyclopenta[b,e]pyridin-8(1H)-imine] was tested, and the Difference ([1]; Cmpd minus DMSO, -LOG(P-value) 1.67082) was -2.872, the “iBAQ Cmpd” value ([1]; replicates 1-3) was 14.2553 and 14.7701 and 16.566 and the Difference ([2]; Cmpd minus DMSO, -LOG(P-value) 0.946138) was 1.759. For the same molecule, the “iBAQ Cmpd” value ([2]; replicates 1-3) was 20.2891 and 19.4609 and 19.6711, the Difference ([3]; Cmpd minus DMSO, -LOG(P-value) 0.868477) was -1.064 and the “iBAQ Cmpd” value ([3]; replicates 1-3) was 20.5029 and 19.445 and 19.2006. For the same molecule, the Difference ([4]; Cmpd minus DMSO, -LOG(P-value) 0.796604) was -1.277, the “iBAQ Cmpd” value ([4]; replicates 1-3) was 21.3858 and 21.3863 and 20.4096 and the Difference ([5]; Cmpd minus DMSO, -LOG(P-value) 1.02475) was -0.9892. The “iBAQ Cmpd” value ([5]; replicates 1-3) was 17.1431 and 16.1539 and 16.3373, the Difference ([6]; Cmpd minus DMSO, -LOG(P-value) 0.904295) was -3.65 and the “iBAQ Cmpd” value ([6]; replicates 1-3) was 19.0378 and 19.0387 and 13.7316. The Difference ([7]; Cmpd minus DMSO, -LOG(P-value) 0.760368) was 0.5453, the “iBAQ Cmpd” value ([7]; replicates 1-3) was 19.0033 and 19.8581 and 19.0089 and the Difference ([8]; Cmpd minus DMSO, -LOG(P-value) 0.798774) was 1.187. For the same molecule, the “iBAQ Cmpd” value ([8]; replicates 1-3) was 19.58 and 17.8353 and 18.5748, the Difference ([9]; Cmpd minus DMSO, -LOG(P-value) 0.756951) was -1.815 and the “iBAQ Cmpd” value ([9]; replicates 1-3) was 14.8034 and 14.2721 and 13.9438. For the same molecule, the Difference ([10]; Cmpd minus DMSO, -LOG(P-value) 0.745191) was 1.429 and the “iBAQ Cmpd” value ([10]; replicates 1-3) was 17.7953 and 15.5869 and 17.7004.
